Measurements from ChEMBL document CHEMBL3526047, “Excretion, metabolism, and pharmacokinetics of 1-(8-(2-chlorophenyl)-9-(4-chlorophenyl)-9H-purin-6-yl)-4-(ethylamino)piperidine-4-carboxamide, a selective cannabinoid receptor antagonist, in healthy male volunteers” (Drug Metab Dispos, 2012).

Experiments:
[1] = system: Homo sapiens; test: Cmax in healthy obese adult male human assessed as total radioactivity at 25 mg, po administered as single dose; assay type: ADME, organism-based; set-up: dose 25 mg, route oral; conditions: in vivo
[2] = biological target: Cytochrome P450 2C9 (Homo sapiens, UniProt P11712); test: Drug metabolism assessed as human recombinant CYP2C9-mediated metabolite formation at 10 uM after 60 mins by HPLC method; assay type: ADME; conditions: recombinant enzyme, 1 h
Sequence of Cytochrome P450 2C9 (P11712 whole entry): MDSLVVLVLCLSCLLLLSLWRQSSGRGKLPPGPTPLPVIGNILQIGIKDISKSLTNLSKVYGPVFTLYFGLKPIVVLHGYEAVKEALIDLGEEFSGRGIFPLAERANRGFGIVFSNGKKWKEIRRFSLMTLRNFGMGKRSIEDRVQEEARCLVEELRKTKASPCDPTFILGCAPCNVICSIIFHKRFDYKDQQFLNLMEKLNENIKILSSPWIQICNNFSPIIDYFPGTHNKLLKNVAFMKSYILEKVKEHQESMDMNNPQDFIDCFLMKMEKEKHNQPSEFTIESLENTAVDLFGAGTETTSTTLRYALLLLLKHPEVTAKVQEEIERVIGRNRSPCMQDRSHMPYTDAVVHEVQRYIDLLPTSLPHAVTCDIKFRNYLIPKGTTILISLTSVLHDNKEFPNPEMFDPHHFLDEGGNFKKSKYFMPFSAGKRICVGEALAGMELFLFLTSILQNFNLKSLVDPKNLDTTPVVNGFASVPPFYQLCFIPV

[3] = biological target: Cytochrome P450 2E1 (Homo sapiens, UniProt P05181); test: Drug metabolism assessed as human recombinant CYP2E1-mediated metabolite formation at 10 uM after 60 mins by HPLC method; assay type: ADME; conditions: recombinant enzyme, 1 h
Sequence of Cytochrome P450 2E1 (P05181 whole entry): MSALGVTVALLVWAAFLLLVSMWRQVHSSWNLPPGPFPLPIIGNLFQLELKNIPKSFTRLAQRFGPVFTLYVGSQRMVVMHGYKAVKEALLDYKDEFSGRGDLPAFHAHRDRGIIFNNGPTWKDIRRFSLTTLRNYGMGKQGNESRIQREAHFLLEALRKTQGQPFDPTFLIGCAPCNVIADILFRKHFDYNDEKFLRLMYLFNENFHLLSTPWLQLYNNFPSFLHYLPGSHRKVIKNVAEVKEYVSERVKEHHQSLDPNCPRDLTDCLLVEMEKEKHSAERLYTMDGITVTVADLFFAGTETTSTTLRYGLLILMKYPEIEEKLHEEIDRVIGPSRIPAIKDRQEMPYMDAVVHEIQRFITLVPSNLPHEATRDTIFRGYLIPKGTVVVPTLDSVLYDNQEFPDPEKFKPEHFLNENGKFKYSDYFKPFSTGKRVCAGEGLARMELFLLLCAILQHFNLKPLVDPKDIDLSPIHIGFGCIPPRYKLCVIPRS

[4] = biological target: Cytochrome P450 2D6 (Homo sapiens, UniProt P10635); test: Drug metabolism assessed as human recombinant CYP2D6-mediated metabolite formation at 10 uM after 60 mins by HPLC method; assay type: ADME; conditions: recombinant enzyme, 1 h
Sequence of Cytochrome P450 2D6 (P10635 whole entry): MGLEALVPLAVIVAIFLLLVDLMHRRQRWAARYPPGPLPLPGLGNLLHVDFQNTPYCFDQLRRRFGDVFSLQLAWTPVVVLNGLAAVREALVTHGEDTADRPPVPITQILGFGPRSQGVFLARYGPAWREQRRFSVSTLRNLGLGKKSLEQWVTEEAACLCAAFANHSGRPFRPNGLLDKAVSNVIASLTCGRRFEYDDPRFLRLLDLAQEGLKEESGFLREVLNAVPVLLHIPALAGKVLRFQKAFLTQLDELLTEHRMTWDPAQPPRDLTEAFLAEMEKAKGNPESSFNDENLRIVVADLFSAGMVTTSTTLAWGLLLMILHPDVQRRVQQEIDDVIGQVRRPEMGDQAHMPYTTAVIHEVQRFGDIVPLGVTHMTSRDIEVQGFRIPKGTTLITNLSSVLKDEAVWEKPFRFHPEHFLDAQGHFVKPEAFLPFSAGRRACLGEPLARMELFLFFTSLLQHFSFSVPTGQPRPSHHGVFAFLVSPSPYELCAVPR

[5] = system: Homo sapiens; test: AUC (0 to last) in healthy obese adult male human assessed as total radioactivity at 25 mg, po administered as single dose; assay type: ADME, organism-based, Plasma; conditions: in vivo
[6] = system: Serum; test: Drug level in healthy obese adult male human serum at 25 mg, po administered as single dose after 24 hrs by HPLC method; assay type: ADME, organism-based; conditions: in vivo
[7] = system: Serum; test: Drug level in healthy obese adult male human serum at 25 mg, po administered as single dose after 48 hrs by HPLC method; assay type: ADME, organism-based; conditions: in vivo
[8] = system: Serum; test: AUC in healthy obese adult male human serum at 25 mg, po administered as single dose after 48 hrs by HPLC method; assay type: ADME, organism-based, Plasma; set-up: time < 48 hr, dose 25 mg, route oral; conditions: in vivo
[9] = system: Homo sapiens; test: Tmax in healthy obese adult male human assessed as total radioactivity at 25 mg, po administered as single dose; assay type: ADME, organism-based; conditions: in vivo
[10] = species on record: Rattus norvegicus; test: Drug recovery in rat; assay type: ADME, organism-based; conditions: in vivo
[11] = system: Serum; test: Drug level in healthy obese adult male human serum at 25 mg, po administered as single dose after 4 hrs by HPLC method; assay type: ADME, organism-based; conditions: in vivo
[12] = biological target: Cytochrome P450 2C19 (Homo sapiens, UniProt P33261); test: Drug metabolism assessed as human recombinant CYP2C19-mediated metabolite formation at 10 uM after 60 mins by HPLC method; assay type: ADME; conditions: recombinant enzyme, 1 h
Sequence of Cytochrome P450 2C19 (P33261 whole entry): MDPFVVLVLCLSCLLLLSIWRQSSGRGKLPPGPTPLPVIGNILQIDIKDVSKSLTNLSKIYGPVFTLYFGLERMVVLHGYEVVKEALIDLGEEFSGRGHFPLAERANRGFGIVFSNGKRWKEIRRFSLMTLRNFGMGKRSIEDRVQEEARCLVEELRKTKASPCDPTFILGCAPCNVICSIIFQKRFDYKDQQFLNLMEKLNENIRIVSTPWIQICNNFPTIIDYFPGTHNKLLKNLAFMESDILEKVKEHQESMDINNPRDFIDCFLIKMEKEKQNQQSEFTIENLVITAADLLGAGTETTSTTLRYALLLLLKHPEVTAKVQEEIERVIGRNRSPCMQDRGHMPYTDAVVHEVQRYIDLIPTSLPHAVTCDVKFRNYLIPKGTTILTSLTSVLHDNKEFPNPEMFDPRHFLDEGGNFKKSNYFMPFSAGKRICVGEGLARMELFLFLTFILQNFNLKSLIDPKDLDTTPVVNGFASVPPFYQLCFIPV

[13] = system: Serum; test: Total drug level in healthy obese adult male human serum at 25 mg, po administered as single dose after 48 hrs by HPLC method; assay type: ADME, organism-based; conditions: in vivo
[14] = system: Homo sapiens; test: AUC (0 to infinity) in healthy obese adult male human assessed as total radioactivity at 25 mg, po administered as single dose; assay type: ADME, organism-based, Plasma; set-up: dose 25 mg, time infinity, route oral; conditions: in vivo
[15] = species on record: Canis familiaris; test: Drug recovery in dog; assay type: ADME, organism-based, Canis lupus familiaris; conditions: in vivo
[16] = biological target: T1, Cytochrome P450 1A1 (Homo sapiens, UniProt P04798); test: Drug metabolism assessed as human recombinant CYP1A1-mediated metabolite formation at 10 uM after 60 mins by HPLC method; assay type: ADME; conditions: recombinant enzyme, 1 h
T1 sequence (P04798 whole entry): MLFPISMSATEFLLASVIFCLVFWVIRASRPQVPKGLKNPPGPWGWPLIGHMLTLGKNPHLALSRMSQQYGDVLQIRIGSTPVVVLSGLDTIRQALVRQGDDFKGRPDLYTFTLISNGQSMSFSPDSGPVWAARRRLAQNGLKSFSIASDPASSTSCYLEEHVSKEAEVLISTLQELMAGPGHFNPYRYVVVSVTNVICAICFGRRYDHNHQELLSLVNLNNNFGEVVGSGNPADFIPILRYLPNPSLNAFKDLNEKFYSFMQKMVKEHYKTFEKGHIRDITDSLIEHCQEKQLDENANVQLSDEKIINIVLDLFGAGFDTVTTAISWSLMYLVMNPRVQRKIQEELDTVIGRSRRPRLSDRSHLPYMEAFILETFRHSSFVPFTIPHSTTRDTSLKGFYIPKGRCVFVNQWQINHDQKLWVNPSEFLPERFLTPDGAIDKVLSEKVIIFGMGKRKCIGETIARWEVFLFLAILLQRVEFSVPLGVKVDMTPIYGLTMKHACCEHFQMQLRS

[17] = system: Homo sapiens; test: Terminal elimination half life in healthy obese adult male human assessed as total radioactivity at 25 mg, po administered as single dose; assay type: ADME, organism-based; conditions: in vivo
[18] = system: Serum; test: Drug level in healthy obese adult male human serum at 25 mg, po administered as single dose after 12 hrs by HPLC method; assay type: ADME, organism-based; conditions: in vivo
[19] = species on record: Mus musculus; test: Drug recovery in mouse; assay type: ADME, organism-based; conditions: in vivo
[20] = biological target: T2, Cytochrome P450 1A2 (Homo sapiens, UniProt P05177); test: Drug metabolism assessed as human recombinant CYP1A2-mediated metabolite formation at 10 uM after 60 mins by HPLC method; assay type: ADME; conditions: recombinant enzyme, 1 h
T2 sequence (P05177 whole entry): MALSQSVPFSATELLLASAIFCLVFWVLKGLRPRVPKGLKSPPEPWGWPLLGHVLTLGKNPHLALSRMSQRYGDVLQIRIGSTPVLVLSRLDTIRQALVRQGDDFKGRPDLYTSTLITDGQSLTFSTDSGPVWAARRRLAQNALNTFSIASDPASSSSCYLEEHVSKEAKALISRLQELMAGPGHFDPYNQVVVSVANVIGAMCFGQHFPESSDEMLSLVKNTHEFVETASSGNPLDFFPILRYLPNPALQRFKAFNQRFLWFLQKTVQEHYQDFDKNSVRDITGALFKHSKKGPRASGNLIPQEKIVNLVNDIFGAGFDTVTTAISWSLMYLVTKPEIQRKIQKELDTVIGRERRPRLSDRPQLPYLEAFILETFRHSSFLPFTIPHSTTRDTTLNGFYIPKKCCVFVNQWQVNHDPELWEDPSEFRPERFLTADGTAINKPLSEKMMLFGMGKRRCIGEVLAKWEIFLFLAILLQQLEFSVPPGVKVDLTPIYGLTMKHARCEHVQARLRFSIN

[21] = biological target: T3, Cytochrome P450 2C8 (Homo sapiens, UniProt P10632); test: Drug metabolism assessed as human recombinant CYP2C8-mediated metabolite formation at 10 uM after 60 mins by HPLC method; assay type: ADME; conditions: recombinant enzyme, 1 h
T3 sequence (P10632 whole entry): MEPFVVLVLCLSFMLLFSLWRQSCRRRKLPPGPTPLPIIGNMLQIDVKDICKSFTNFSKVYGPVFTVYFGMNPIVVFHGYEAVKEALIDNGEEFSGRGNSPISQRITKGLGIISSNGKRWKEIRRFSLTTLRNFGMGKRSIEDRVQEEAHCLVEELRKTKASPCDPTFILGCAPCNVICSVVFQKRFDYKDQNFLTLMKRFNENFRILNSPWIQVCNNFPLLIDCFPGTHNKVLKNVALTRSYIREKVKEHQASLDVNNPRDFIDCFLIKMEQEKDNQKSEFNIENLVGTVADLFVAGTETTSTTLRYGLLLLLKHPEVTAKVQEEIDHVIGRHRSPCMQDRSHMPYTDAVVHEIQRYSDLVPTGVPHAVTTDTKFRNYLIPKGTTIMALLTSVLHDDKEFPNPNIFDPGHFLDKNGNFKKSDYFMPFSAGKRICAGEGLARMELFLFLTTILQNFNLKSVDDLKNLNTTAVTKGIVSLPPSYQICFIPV

[22] = system: Serum; test: Drug level in serum of healthy obese adult male human treated with [14C]CP-945,598 at 25 mg, po administered as single dose after 12 hrs by HPLC method; assay type: ADME, organism-based; conditions: in vivo
[23] = system: Serum; test: Total drug level in serum of healthy obese adult male human treated with [14C]CP-945,598 at 25 mg, po administered as single dose after 48 hrs by HPLC method; assay type: ADME, organism-based; conditions: in vivo
[24] = system: Serum; test: AUC in serum of healthy obese adult male human treated with [14C]CP-945,598 at 25 mg, po administered as single dose after 48 hrs by HPLC method; assay type: ADME, organism-based; set-up: time < 48 hr, dose 25 mg, route oral; conditions: in vivo
[25] = biological target: Cytochrome P450 3A4 (Homo sapiens, UniProt P08684); test: Drug metabolism assessed as human recombinant CYP3A4-mediated metabolite formation after 60 mins by HPLC method; assay type: ADME; conditions: recombinant enzyme, 1 h
Sequence of Cytochrome P450 3A4 (P08684 whole entry): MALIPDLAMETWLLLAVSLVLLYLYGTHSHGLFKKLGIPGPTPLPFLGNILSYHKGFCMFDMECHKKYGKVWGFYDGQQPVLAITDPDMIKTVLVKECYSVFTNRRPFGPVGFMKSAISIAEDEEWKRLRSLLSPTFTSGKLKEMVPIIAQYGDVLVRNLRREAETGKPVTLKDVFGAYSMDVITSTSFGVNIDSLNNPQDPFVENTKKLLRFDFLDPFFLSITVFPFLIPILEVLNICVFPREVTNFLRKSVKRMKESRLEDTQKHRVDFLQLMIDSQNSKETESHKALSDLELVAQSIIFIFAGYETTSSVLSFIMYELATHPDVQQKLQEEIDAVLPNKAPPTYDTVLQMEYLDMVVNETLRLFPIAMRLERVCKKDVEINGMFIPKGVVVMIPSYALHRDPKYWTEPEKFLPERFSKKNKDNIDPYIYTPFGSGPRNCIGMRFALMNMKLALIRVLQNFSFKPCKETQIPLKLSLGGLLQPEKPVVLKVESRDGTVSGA

[26] = system: Serum; test: Drug level in serum of healthy obese adult male human treated with [14C]CP-945,598 at 25 mg, po administered as single dose after 48 hrs by HPLC method; assay type: ADME, organism-based; conditions: in vivo
[27] = system: Serum; test: Drug level in serum of healthy obese adult male human treated with [14C]CP-945,598 at 25 mg, po administered as single dose after 24 hrs by HPLC method; assay type: ADME, organism-based; conditions: in vivo
[28] = system: Serum; test: Drug level in serum of healthy obese adult male human treated with [14C]CP-945,598 at 25 mg, po administered as single dose after 4 hrs by HPLC method; assay type: ADME, organism-based; conditions: in vivo
[29] = Drug excretion in feces of healthy obese adult male human treated with [14C]CP-945,598 at 25 mg, po administered as single dose after 0 to 384 hrs hrs by HPLC method; assay type: ADME, organism-based; conditions: in vivo
[30] = system: Homo sapiens; test: Total drug excretion in healthy obese adult male human treated with [14C]CP-945,598 at 25 mg, po administered as single dose after 0 to 384 hrs hrs by HPLC method; assay type: ADME, organism-based; conditions: in vivo
[31] = system: Homo sapiens; test: Terminal elimination half life in healthy obese adult male human treated with [14C]CP-945,598 at 25 mg, po administered as single dose; assay type: ADME, organism-based; conditions: in vivo
[32] = system: Homo sapiens; test: AUC (0 to last) in healthy obese adult male human treated with [14C]CP-945,598 at 25 mg, po administered as single dose; assay type: ADME, organism-based, Plasma; set-up: dose 25 mg, route oral, time 0 - last; conditions: in vivo
[33] = system: Homo sapiens; test: Cmax in healthy obese adult male human treated with [14C]CP-945,598 at 25 mg, po administered as single dose; assay type: ADME, organism-based; set-up: dose 25 mg, route oral; conditions: in vivo
[34] = system: Homo sapiens; test: AUC (0 to infinity) in healthy obese adult male human treated with [14C]CP-945,598 at 25 mg, po administered as single dose; assay type: ADME, organism-based, Plasma; set-up: dose 25 mg, time infinity, route oral; conditions: in vivo
[35] = Drug excretion in urine of healthy obese adult male human treated with [14C]CP-945,598 at 25 mg, po administered as single dose after 0 to 384 hrs hrs by HPLC method; assay type: ADME, organism-based; conditions: in vivo
[36] = system: Homo sapiens; test: Tmax in healthy obese adult male human treated with [14C]CP-945,598 at 25 mg, po administered as single dose; assay type: ADME, organism-based; conditions: in vivo

CCNC1(C(N)=O)CCN(c2ncnc3c2n[14c](-c2ccccc2Cl)n3-c2ccc(Cl)cc2)CC1.Cl
Cmax [1]: 74 ngequiv/g | Drug metabolism [2]: metabolite_not_detected | Drug metabolism [3]: metabolite_not_detected | Drug metabolism [4]: metabolite_not_detected | AUClast [5]: 8298 ngequiv.hr/g | Drug uptake [6]: 6.4 ngequiv/g | Drug uptake [7]: 2.7 ngequiv/g | AUC [8]: 297 ngequiv.hr/g | Tmax [9]: 6 h | Drug recovery [10]: 98% | Drug uptake [11]: 11.5 ngequiv/g | Drug metabolism [12]: metabolite_not_detected | Drug uptake [13]: 12.1 ngequiv/g | AUC [14]: 9434 ng/h/mL | Drug recovery [15]: 99% | Drug metabolism [16]: metabolite_not_detected | beta t1/2 [17]: 190 h | Drug uptake [18]: 8 ngequiv/g | Drug recovery [19]: 98% | Drug metabolism [20]: metabolite_not_detected | Drug metabolism [21]: metabolite_not_detected

O=C1CCN(c2ncnc3c2nc(-c2ccccc2Cl)n3-c2ccc(Cl)cc2)CC1
Drug uptake [22]: 3.6 ngequiv/g | Drug uptake [23]: 12.6 ngequiv/g | AUC [24]: 309 ngequiv.hr/g | Drug metabolism [25]: 26.9% | Drug uptake [26]: 9.7 ngequiv/g | Drug uptake [27]: 7.2 ngequiv/g | Drug uptake [28]: 4.5 ngequiv/g

NC(=O)C1(NC2O[C@H](CO)[C@@H](O)[C@H]2O)CCN(c2ncnc3c2nc(-c2ccccc2Cl)n3-c2ccc(Cl)cc2)CC1 (stereo not given in full)
Drug excretion [29]: 6.3% | Drug excretion [30]: 6.3%

NC(=O)C1(N)CCN(c2ncnc3c2nc(-c2ccccc2Cl)n3-c2ccc(Cl)cc2)CC1
Drug excretion [29]: 4.5% | beta t1/2 [31]: 139 h | Drug uptake [22]: 38.1 ngequiv/g | Drug uptake [23]: 57.3 ngequiv/g | AUClast [32]: 3730 ng·h/mL | AUC [24]: 1401 ngequiv.hr/g | Drug metabolism [25]: 48.1% | Cmax [33]: 42 ng/mL | AUC [34]: 3970 ng·h/mL | Drug excretion [30]: 6.8% | Drug uptake [26]: 23.1 ngequiv/g | Drug uptake [27]: 31.8 ngequiv/g | Drug excretion [35]: 2.3% | Drug uptake [28]: 28.4 ngequiv/g | Tmax [36]: 6.8 h
